Data from US5677282A (Proscript, Inc., priority 1995, dated 1997).
pKi: −log10 of the molar value.

Molecular target: stromelysin (Homo sapiens, UniProt P08254)
Assay: Assay of stromelysin inhibition activity (fluorogenic coumarin peptide substrate)
Type: biochemical
Conditions: trypsin-activated stromelysin 2 nM, H-150 buffer pH 7.4, room temperature; read-out: Ki(app)
Procedure: Stromelysin was first activated with trypsin. This was done by preparing a reaction mixture in H-150 (H-150 consists of 10 mM CaCl2, 150 mM NaCl and 100 mM HEPES at pH 7.4) containing a final concentration of 25 μg/mL trypsin and 2.2 μM of stromelysin (Marcy et al., Biochemistry,30:6476 (1991); Koklitis et al., Biochem. J., 376:217 (1991). The reaction was incubated for 30 minutes at 37° C. and then quenched by adding trypsin inhibitor agarose to the reaction mixture at a 20 fold excess with respect to trypsin.
The reaction mixture was centrifuged at 14,000 rpm (16,000 ×g) for 30 minutes using an Eppendorf Centrifuge 5415C. The supernant, which contains activated stromelysin, was concentrated with a Centricon 10 (5000 g, 1 hour). A sample was analyzed by Bradford total protein assay and 12% SDS polyacrylamide gel electrophoresis.
All steps of the stromelysin inhibition assay were performed at room temperature. Assay solutions were prepared for each inhibitor tested. Activated stromelysin was added to a stirred covelte to a final concentration of 2 nM in 2 mL of H-150 buffer. 4 μL 5 mM coumarin peptide substrate was dissolved in DMSO and the initial rate of hydrolysis was measured for 100-200 seconds.
Substrate hydrolysis was assessed by fluorescence using a slit width of 10:10, excitation at 328 nm and emission at 393 nm. Ki was calculated based on the assumption of simple competitive inhibition and a substrate concentration much less than Km. 2 μL of 10 mM inhibitor in DMSO was added and the reduction in hydrolysis rate measured. The addition of 2 μL of inhibitor was continued until a 30-70% inhibition was observed.

stromelysin, sequence (P08254 100-477): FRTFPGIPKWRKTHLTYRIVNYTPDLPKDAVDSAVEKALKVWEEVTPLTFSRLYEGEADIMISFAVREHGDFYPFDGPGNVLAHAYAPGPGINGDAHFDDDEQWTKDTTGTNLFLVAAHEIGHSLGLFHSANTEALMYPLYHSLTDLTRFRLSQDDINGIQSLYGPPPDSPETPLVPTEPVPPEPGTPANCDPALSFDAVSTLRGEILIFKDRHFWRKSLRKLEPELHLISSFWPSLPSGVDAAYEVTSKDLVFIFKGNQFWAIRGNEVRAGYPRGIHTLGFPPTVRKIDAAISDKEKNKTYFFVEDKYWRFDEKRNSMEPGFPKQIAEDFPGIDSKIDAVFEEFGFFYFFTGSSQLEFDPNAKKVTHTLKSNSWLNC

Row | Compound | pKi
1 | CC(C)[C@H](NC(=O)[C@H](Cc1cccc2ccccc12)NC(=O)OCc1ccccc1)C(=O)Nc1n[nH]c(=S)s1 | 6.72
2 | CC(C)[C@H](NC(=O)[C@H](Cc1cc(I)c(O)c(I)c1)NC(=O)OCc1ccccc1)C(=O)Nc1n[nH]c(=S)s1 | 7.01
3 | CC(C)(C)[C@H](NC(=O)[C@H](Cc1ccc(OCc2ccccc2)cc1)NC(=O)OCc1ccccc1)C(=O)Nc1n[nH]c(=S)s1 | 7.05
4 | O=C(N[C@@H](Cc1ccc(OCc2ccccc2)cc1)C(=O)N[C@H](C(=O)Nc1n[nH]c(=S)s1)C1CCCCC1)OCc1ccccc1 | 7.15
5 | CC(C)[C@H](NC(=O)[C@@H](NC(=O)OCc1ccccc1)C1CCCCC1)C(=O)Nc1n[nH]c(=S)s1 | 6.74
6 | NCCCC[C@H](NC(=O)OCc1ccccc1)C(=O)N[C@@H](Cc1ccc(OCc2ccccc2)cc1)C(=O)N[C@H](C(=O)Nc1n[nH]c(=S)s1)c1ccccc1 | 5.72
7 | O=C(N[C@@H](Cc1ccc(N(Cc2ccccc2)Cc2ccccc2)cc1)C(=O)NC(C(=O)Nc1n[nH]c(=S)s1)c1ccccc1)OCc1ccccc1 (stereo partly shown) [5(N-benzyloxycarbonyl-(N',N'-dibenzylamino)phenylalanine-phepylglycylamino)-1,3,4-thiadiazole-2-thione] | 6.69
8 | CSCC[C@H](NC(=O)OCC1c2ccccc2-c2ccccc21)C(=O)Nc1n[nH]c(=S)s1 [5-(N-9-fluorenylmethoxycarbonyl)methionylamino)-1,3,4-thiadiazole-2-thione] | 6.71
9 | CC(C)[C@H](NC(=O)[C@H](Cc1ccccc1)NS(=O)(=O)c1cccc2cccnc12)C(=O)Nc1n[nH]c(=S)s1 [5-(N-(8-quinolinesulfonyl)phenylalanyl-valylamino-1,3,4-thiadiazole-2-thione] | 6.27
10 | O=C(N[C@@H](Cc1c[nH]c2ccccc12)C(=O)Nc1n[nH]c(=S)s1)OCC1c2ccccc2-c2ccccc21 [5-(N-(9-fluorenylmethoxycarbonyl)tryptonylamino)-1,3,4-thiadiazole-2-thione] | 6.47
11 | CCCC(NC(=O)OCC1c2ccccc2-c2ccccc21)C(=O)Nc1n[nH]c(=S)s1 (stereo not shown) [5-(N-(9-fluorenylmethoxycarbonyl-norvalyl)-1,3,4-thiadiazole-2-thione] | 6.29
12 | CC(C)C(NC(=O)C(Cc1ccc(OCc2ccc3ccccc3c2)cc1)NC(=O)OCc1ccccc1)C(=O)Nc1n[nH]c(=S)s1 (stereo not shown) [5-(N-benzyloxycarbonyl((O-methylene-2-naphthyl)tyrosyl)-valylamino)-1,3,4-thiadiazole-2-thione] | 7.21
13 | CC(C)(NC(=O)C(Cc1ccc(OCc2ccccc2)cc1)NC(=O)OCc1ccccc1)C(=O)Nc1n[nH]c(=S)s1 (stereo not shown) [5-(N-benzyloxycarbonyl-((O-benzyl)tyrosyl)-amino-isobutyroylamino)-1,3,4-thiadiazole-2-thione] | 6.63
14 | O=C(CC[C@H](NC(=O)OCc1ccccc1)C(=O)NC(C(=O)Nc1n[nH]c(=S)s1)c1ccccc1)NC(c1ccccc1)(c1ccccc1)c1ccccc1 (stereo partly shown) [5-(N-benzyloxycarbonyl-((γ-N-trityl)glutamyl)-phenylglycylamino)-1,3,4-thiadiazole-2-thione] | 7.30
15 | O=C(N[C@@H](Cc1ccccc1F)C(=O)Nc1n[nH]c(=S)s1)OCc1ccccc1 [5-(N-benzyloxycarbonyl-(ortho-fluoro)phenylalanylamino)-1,3,4-thiadiazole-2-thione] | 6.20
16 | O=C(NC(CCC(=O)N(Cc1ccccc1)Cc1ccccc1)C(=O)NC(C(=O)Nc1n[nH]c(=S)s1)c1ccccc1)OCc1ccccc1 (stereo not shown) [5-(N-benzyloxycarbonyl-(γ-N,N-dibenzyl)glutamyl-phenylglycylamino)-1,3,4-thiadiazole2-thione] | 7.72
17 | CC(C)(C)OC(=O)NCCCC[C@H](NC(=O)OCc1ccccc1)C(=O)N[C@@H](Cc1ccc(OCc2ccccc2)cc1)C(=O)NC(C(=O)Nc1n[nH]c(=S)s1)c1ccccc1 (stereo partly shown) [5-(N-benzyloxycarbonyl-lysyl(N-ε-t-butyloxycarbonyl)-tyrosyl(O-benzyl)-phenylglycylamino-1,3,4-thiadiazole-2-thione] | 6.83
18 | O=C(CNC(=O)[C@H](Cc1ccccc1)NC(=O)OCc1ccccc1)Nc1n[nH]c(=S)s1 [5-(N-benzyloxycarbonyl-phenylalanyl-glycylamino)-1,3,4-thiadiazole-2-thione] | 5.40
19 | CC(C)[C@H](NC(=O)[C@H](Cc1ccccc1)NC(=O)OCc1ccccc1)C(=O)N[C@@H](Cc1c[nH]c2ccccc12)C(=O)Nc1n[nH]c(=S)s1 [5-(N-benzyloxycarbonyl-phenylalanyl-valyl-tryptonylamino)-1,3,4-thiadiazole-2-thione] | 6.56

Continued, values first:

Row | pKi | Compound
20 | 6.04 | CSc1ncccc1C(=O)NC(Cc1ccccc1)C(=O)NC(C(=O)Nc1n[nH]c(=S)s1)C(C)C (stereo not shown) [5-(N-(2-methylthionicotyl)phenylalanyl-valyamino)-1,3,4-thiadiazole-2-thione]
21 | 7.21 | CC(C)C(NC(=O)C(Cc1ccccc1)NC(=O)c1ccc(OCc2ccccc2)cc1)C(=O)Nc1n[nH]c(=S)s1 (stereo not shown) [5-(N-(4-benzyloxy)benzoyl-phenylalanyl-valylamino)-1,3,4-thiadiazole-2-thione]
22 | 6.74 | CC(C)C[C@H](NC(=O)OCC1c2ccccc2-c2ccccc21)C(=O)Nc1n[nH]c(=S)s1 [5-(N-(9-fluorenylmethoxycarbonyl)leucylamino)-1,3,4-thiadiazole-2-thione]
23 | 6.20 | CC(C)[C@H](NC(=O)[C@H](Cc1ccccc1F)NC(=O)OCc1ccccc1)C(=O)Nc1n[nH]c(=S)s1 [5-(N-Benzyloxycarbonyl-(2-flouro)phenyl-valylamino)-1,3,4-thiadiazole-2-thione]
24 | 6.03 | CC[C@H](C)[C@H](NC(=O)OCc1ccccc1)C(=O)N[C@H](C(=O)Nc1n[nH]c(=S)s1)C(C)C [5-(N-Benzyloxycarbonyl-isoleucyl-valylamino)-1,3,4-thiadiazole-2-thione]
25 | 5.19 | CC(=O)N[C@@H](CC(C)C)C(=O)N[C@@H](CC(C)C)C(=O)Nc1n[nH]c(=S)s1 [5-(N-acetyl-leucyl-leucylamino)-1,3,4-thiadiazole-2-thione]
26 | 6.81 | CC(C)[C@H](NC(=O)[C@H](Cc1ccc(F)cc1)NC(=O)OCc1ccccc1)C(=O)Nc1n[nH]c(=S)s1 [5-(N-benzyloxycarbonyl(para-F)phenylalanyl-valylamino)-1,3,4-thiadiazole-2-thione]
27 | 6.66 | CC(C)[C@H](NC(=O)[C@H](Cc1ccc2ccccc2c1)NC(=O)OCc1ccccc1)C(=O)Nc1n[nH]c(=S)s1 [5-(N-benzyloxycarbonyl-(2-(2-naphthyl)alanyl-valylamino)-1,3,4-thiadiazole-2-thione]
28 | 6.63 | CC(C)[C@H](NC(=O)[C@H](COCc1ccccc1)NC(=O)OCc1ccccc1)C(=O)Nc1n[nH]c(=S)s1 [5-(N-benzyloxycarbonyl-(O-benzyl)seryl-valylamino)-1,3,4-thiadiazole-2-thione]
29 | 6.31 | CSCC[C@H](NC(=O)[C@H](CC(C)C)NC(=O)OCc1ccccc1)C(=O)Nc1n[nH]c(=S)s1 [5-(N-benzyloxycarbonyl-leucyl-methionylamino)-1,3,4-thiadiazole-2-thione]
30 | 5.89 | CC(C)C[C@H](NC(=O)OCc1ccccc1)C(=O)N[C@@H](Cc1ccc(O)cc1)C(=O)Nc1n[nH]c(=S)s1 [5-(N-benzyloxycarbonyl-leucyl-tyrosylamino-1,3,4-thiadiazole-2-thione]
31 | 6.18 | CC(C)C[C@H](NC(=O)OCc1ccccc1)C(=O)N[C@H](C(=O)Nc1n[nH]c(=S)s1)C(C)C [5-(N-benzyloxycarbonyl-leucyl-valylamino)-1,3,4-thiadiazole-2-thione]
